In patent US7365042B2, “Pyridine-3-sulfonyl compounds as pesticidal agents” (BASF Aktiengesellschaft, priority 2002, dated 2008):
Several values for one entry are separate records, joined by “and”; a condition that tells them apart may be missing. Equal entries are not always repeated.

Assays:
Format in all cases: in vivo
[1] = tested on: Two-spotted spider mite (Tetranychus uriticae), P-resistant origin; assay: Two-spotted spider mite leaf dip test (TSMR A42); details: 300 ppm, lima bean, mixed life stages, five days
Description: (§1) Test compounds were prepared and formulated into aqueous formulations using acetone. The formulations were tested using the following target species: • SAW-L52-PRODER (southern armyworm), 2ND-3RD Instar Larvae, Leaf Dip, 4 days • CA-H43-APHIGO (cotton aphid), Mixed Life Stages, Leaf Dip • BA-H40-APHIFA (black bean aphid), Mixed Life Stages, Plant Drench • GPA-H52-MYZUPE (green peach aphid), Mixed Life Stages, Leaf Dip • SLWF-H45-BEMIAR (silver leaf whitefly), Adult, Leaf Dip • TSMR-A42-TETRUR (two-spotted spider mite, P-resistant origin), Mixed Life Soges, Leaf Dip
Test Procedures for Two-spotted spider mite (Tetranychus uriticae) TSM—leaf-dip:
Selected lima bean plants (one plant per pot), grown to the first leaf pair with a span of 7-12 cm. Placed sections of a heavily infested leaf (laboratory reared mites) an the test plants. Allowed the mites to transfer from the leaf sections to the test plants (at least two houss) to provide at least 100 mites per leaf. Removed the leaf sections from the test plants prior to dipping.
Prepared test solutions as needed in 50:50 acetone:water and 100 ppm Kinetic® surfactant. Dipped the infested leaves of the intact plant into the test solution to provide complete coverage of the leaf surfaces. Placed in a well-vented area to dry. […]

Bean aphid (Aphis fabae) = assay: Bean aphid test on nasturtium seedlings (BA H40); parameters: key to BA H40 observation (feeding): R = Reduced feeding, regardless of cause (e.g., repellent effects); details: 3 days; for BA H40 activity rating: mixed life stages
Description: as §1
Test Procedures for Bean aphid (Aphis fabae) (BA—Foliar):
Transferred approximately 5-day-old nasturtium seedlings (at the state of unfolded cotyledons), grown in Metro mix in propagation trays in the greenhouse, to Rootcubes, which were held in propagation trays Pressed the seed (still attached to the seedling) in the central depression of each cube. Held transferred seedlings for approximately 3 days in the greenhouse for expansion of the cotyledons.
In the insecticide screening laboratory, infested the seedlings. Positioned a paint roller screen above the 72 plants in each tray so that the screen was in contact with the foliage of the test plants. Spread approximately 50 infested nasturtium stems and leaves (from approximately 2-3 peat pots of insectary-reared aphids) an each screen. Kept the trag with the seedlings sitting in about ½ in. water overnight in the laboratory (leaving lights in lab on). Migration of aphids to the test plants occurred by morning. Removed the screen with drying leaves from the trays of test plants and discarded the leaves.
Prepared test solutions as needed in 50:50 acetone:water and 100 ppm Kinetic® surfactant. Selected plants to dip that had approximately 2-30 aphids per plant. Dipped each plant into the test solution to provide complete coverage of the foliage, stem, protruding seed surface and surrounding cube surface. Kept treated plants in the fume hood to dry. For routine screening, used one plant/treatment.
Placed treated plants in bioassay trays, 1 plant/well. Added water to fill each well. This allowed the plants to be watered from the roots, not interfering with the foliar treatment, and reduced potential migration of aphids between treatments. Kept treated plants at room temperature an the insecticide screening lab bench with continuous fluorescent light for 3 days.

[2] = tested on: Cotton aphid (Aphis gossypii); assay: Cotton aphid leaf dip test (CA H43); details: mixed life stages
Description: as §1
Test Procedures for Cotton aphid (Aphis gossypii) (CA—leaf dip):
Selected cotton plants to the cotyledon stage (one plant per pot). Placed one heavily infested cotyledon pair, hosting approximately 100 laboratory-reared aphids, an top of each test plant. Allowed the aphids to transfer to the test plants (overnight). Removed the drying cotyledons from the test plants prior to dipping.
Prepared test solutions as needed in 50:50 acetone: water and 100 ppm Kinetic® surfactant. Dipped the infested leaves of the intact plant into the test solution to provide complete coverage of the leaf surfaces. Placed in a well-vented area to dry.

[3] = tested on: Green peach aphid (Myzus persicae); assay: Green peach aphid leaf dip test (GPA H52); details: pepper, mixed life stages, five days
Description: as §1
Test Procedures for GPA—Green peach aphid (Myzus persicae)—Leaf Dip:
Selected pepper plants (one plant per pot) in the second leaf-pair stage, with the 1st leaf-pair measuring 6-10 cm from tip to tip. Removed the cotyledons. Placed infested pepper leaves or leaf sections on top of the test plants, allowing for approximately 60 laboratory-reared aphids per plant. Allowed the aphids to transfer from the leaf sections to the test plants (overnight) to reach a density of at least 40 aphids per plant, then removed the leaf sections.
Prepared test solutions as needed in 50:50 acetone:water and 100 ppm Kinetic® surfactant (STP#1A). Dipped the leaves of the infested plant into the test solution to provide complete coverage of the leaf surfaces. Placed in a well-vented area to dry. Test plants were maintained under fluorescent light (24 hour photoperiod) at 25±2° C. and 20-40% relative humidity for five days, at which time aphid survival was determined (see Table 1a).

Row | Compound | TSMR A42 activity rating [1] | BA H40 activity rating (Bean aphid (Aphis fabae); 10 ppm) | BA H40 observation (feeding) (Bean aphid (Aphis fabae); 100 ppm) | BA H40 activity rating (Bean aphid (Aphis fabae); 100 ppm) | BA H40 observation (feeding) (Bean aphid (Aphis fabae); 300 ppm) | BA H40 activity rating (Bean aphid (Aphis fabae); 300 ppm) | CA H43 activity rating ([2]; 10 ppm) | CA H43 activity rating ([2]; 100 ppm) | CA H43 activity rating ([2]; 300 ppm) | GPA H52 activity rating ([3]; 10 ppm) | GPA H52 activity rating ([3]; 100 ppm) | GPA H52 activity rating ([3]; 300 ppm)
1 | C#CCNS(=O)(=O)c1cnccc1C(F)(F)F [Compound 1, 4-Trifluoromethyl-pyridine-3-sulfonic acid prop-2-ynylamide] | 0 (0 = 0-25% reduction of live population vs. check) | 0^ (0 = 0-25% reduction of live population vs. check) | R | 5 (5 = 50-74% reduction of live population vs. check) | R | 8 (8 = 86-99% reduction of live population vs. check) | 0 (0 = 0-25% reduction of live population vs. check) | 8 (8 = 86-99% reduction of live population vs. check) | 8 (8 = 86-99% reduction of live population vs. check) | 0 (0 = 0-25% reduction of live population vs. check) | 7 (7 = 75-85% reduction of live population vs. check) | 8 (8 = 86-99% reduction of live population vs. check)
2 | N#CCNS(=O)(=O)c1cnccc1C(F)(F)F [Compound 2, 4-Trifluoromethyl-pyridine-3-sulfonic acid cyanomethyl-amide] | 0 (0 = 0-25% reduction of live population vs. check) | 0^ (0 = 0-25% reduction of live population vs. check) | R | 0 (0 = 0-25% reduction of live population vs. check) | R | 7 (7 = 75-85% reduction of live population vs. check) | 0 (0 = 0-25% reduction of live population vs. check) | 8 (8 = 86-99% reduction of live population vs. check) | 9 (9 = 100% reduction of live population vs. check) | 0 (0 = 0-25% reduction of live population vs. check) | 3 (3 = 25-49% reduction of live population vs. check) | 8 (8 = 86-99% reduction of live population vs. check) and 5 (5 = 50-74% reduction of live population vs. check)
